The experiment concerns the target acetylcholinesterase (Homo sapiens, UniProt P22303). The experiment in a line: biochemical. The conditions noted are these: method of Ellman et al., Biochem. Pharmacol. 7, 88-95 (1961); read-out: Inhibition of acetylcholinesterase activity, IC50.
Sequence of acetylcholinesterase (P22303 32-614): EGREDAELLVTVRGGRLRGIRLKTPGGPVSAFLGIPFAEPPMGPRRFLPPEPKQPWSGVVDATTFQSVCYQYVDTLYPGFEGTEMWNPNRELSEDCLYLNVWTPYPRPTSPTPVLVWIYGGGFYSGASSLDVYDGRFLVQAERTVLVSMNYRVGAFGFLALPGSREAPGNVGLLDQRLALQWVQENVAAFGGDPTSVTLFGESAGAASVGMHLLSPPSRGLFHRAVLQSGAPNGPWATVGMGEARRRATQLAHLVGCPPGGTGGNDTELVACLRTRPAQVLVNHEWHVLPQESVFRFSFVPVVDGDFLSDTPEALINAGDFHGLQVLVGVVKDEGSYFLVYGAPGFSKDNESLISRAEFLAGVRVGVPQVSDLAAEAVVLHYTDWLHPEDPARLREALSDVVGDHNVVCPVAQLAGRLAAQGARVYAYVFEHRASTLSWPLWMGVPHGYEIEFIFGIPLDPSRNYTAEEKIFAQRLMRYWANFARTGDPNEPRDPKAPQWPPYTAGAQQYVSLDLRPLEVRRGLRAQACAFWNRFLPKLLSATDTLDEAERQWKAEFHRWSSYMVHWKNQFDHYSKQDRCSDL
On to `COc1ccc(C(=O)NC(=S)NCCOCCN(C)Cc2ccccc2)cc1` [Compound 11], for which the IC50 was 26 nM.

As for `CN(CCOCCNC(=S)NC(=O)c1ccc(Cl)c(Cl)c1)Cc1ccccc1` [Compound 14], the IC50 amounted to 55 nM.

As for `CN(CCOCCNC(=S)NC(=O)c1cccc([N+](=O)[O-])c1)Cc1ccccc1` [Compound 13], the concentration for half-maximal inhibition (IC50) was 15 nM.

As to `CN(CCOCCNC(=S)NC(=O)c1ccc2ccccc2c1)Cc1ccccc1` [Compound 16], the IC50 worked out at 100 nM.

Take `CN(CCCCCNC(=S)NC(=O)c1ccccc1)CC1CCCCC1` [Compound 5, 1-Benzoyl-3-[5-(N-cyclohexylmethyl-N-methylamino)pentyl]thiourea]: the IC50 came out at 50 nM.

In the case of `CN(CCOCCNC(=S)NC(=O)c1ccc(Cl)cc1)Cc1ccccc1` [Compound 12], the IC50 was 30 nM.

The values are drawn from patent publication US5288758A, “New urea derivatives, their preparation and their application in therapy” (priority 1991, dated 1994).
